System: heme oxygenase-1 (HO-1)
Experiment: High throughput screen: HO-1 promoter/enhancer luciferase reporter (pHOGL3/4.5+220) in stable HEK293 cells
Type: cell-based
Conditions: Homo sapiens; for EC50: Table 1, evaluation of biaryl aminomaleimides, HO-1 induction; for Emax: Table 1, unit inferred, Emax as % of 5 μM hemin
Method: The generation of the pHOGL3/4.5+220 construct is described in Deshane, et al. (2010) “SpI regulates chromatin looping between an intronic enhancer and distal promoter of the human heme oxygenase-1 gene in renal cells” J Biol Chem 285(22): 16476-86. See also FIG. 1.
Briefly, BamHI sites were added to the 4.5-kb PCR product generated by long-range PCR from a bacterial artificial chromosome clone containing portions of chromosome 22 (accession no. Z82244), including the HO-1 gene. This fragment was cloned into the BglII restriction site of the multiple cloning region to make the parental clone (pHOGL3/4.5). The 220-bp intronic enhancer was amplified with SalI sites on either end and cloned into the SalI site of the vector to generate pHOGL3/4.5+220.
In order to generate cells that stably express luciferase expression vectors that lack a mammalian antibiotic selection cassette, HEK293 cells were co-transfected with either pHOGL3/4.5+220 (Deshane et al, 2010) or the Triple Mutant construct (Liby, Hock et al, 2005; Hock et al, 2007) and pcDNA3.1 Zeocin using Lipofectamine 2000. Cells were cultured in Zeocin (400 ug/ml; Invitrogen) for selection. Individual clones were sorted by flow cytometry and plated into a 96-well plate at a density of one cell per well. Clones were maintained and expanded in complete media (DMEM/10% FBS/1× antibiotic-antimycotic) supplemented with 100 ug/ml Zeocin, and incubated at 37° C. in 5% carbon dioxide. Incorporation of the Luciferase expression vectors was validated by assaying for luciferase.
A library of over 150,000 compounds, as well as a library of over 4,000 FDA approved compounds, were used in the HTS assay. […] This led to the identification of approximately 800 compounds that induce HO-1 and have desirable chemical structures. […] The In-Cell Western assay was optimized to screen for endogenous HO-1 in a high throughput platform, and results were validated by Western blot, real-time PCR, and enzyme activity assays. Additional RNA sequencing studies highlighted a role for the transcription factor Nrf2 and other targets in HO-1 induction by several small molecules.

| EC50 [nM] | Compound | Emax [%] |
| --- | --- | --- |
| 3340 | O=C1C=C(Nc2cc(F)c(O)c(F)c2)C(=O)N1c1ccc(Cl)cc1 [Compound 29] | 110 |
| > 50000 | N#Cc1ccc(N2C(=O)C=C(Nc3cc(F)c(O)c(F)c3)C2=O)cc1 [Compound 40] |  |
| 2080 | COc1cc(N2C(=O)C=C(Nc3cc(F)c(O)c(F)c3)C2=O)cc(OC)c1OC [Compound 33] | 28.4 |

Further lines, the compound ahead of its results:

| Compound | EC50 [nM] | Emax [%] |
| --- | --- | --- |
| COc1c(F)cc(NC2=CC(=O)N(c3ccccc3)C2=O)cc1F [Compound 23] | > 50000 |  |
| O=C1C=C(Nc2ccc(O)cc2F)C(=O)N1c1ccccc1 [Compound 4] | 1780 | 38.9 |

— patent US11753374B2, “Compounds for the treatment of acute and chronic kidney disease” (Southern Research Institute, priority 2020, dated 2023)
